Results on two molecules are retold here after patent US20220273673A1, “BONE-BINDING COMPOUNDS” (BRIGHAM YOUNG UNIVERSITY, priority 2019, published 2022).

Assay [1] concerns J774.2 monocyte macrophage lineage cells. The experiment in a line: In vitro protein prenylation assay (mevalonate pathway). Format: cell-based. The settings on record: 25 μM or equimolar concentration; 24 hours. Here is the method: The assay used was as described by Ali N et al., Small GTPases 6(4):202-11 (2015). Briefly, this involved incubation of cells with the compounds for 24 hours at increasing doses of drugs and then an in vitro prenylation assay being performed on protein extracts. Immunoblotting (western blotting) was carried out to identify an exemplar unprenylated protein, with a band indicating drug activity affecting the mevalonate pathway.

In a further assay the test system is MC3T3-E1 cells. The experiment in a line: Alkaline phosphatase activity assay (p-nitrophenyl phosphate) in osteoblasts. Format: cell-based. Particulars: 5 μM; osteogenic media; without rhBMP-2. Here is the method: A p-nitrophenyl phosphate assay was performed for alkaline phosphatase activity (Sigma-Aldrich) and normalized to day-3 cells grown in osteogenic media and α-MEM media. Assays were performed in triplicate with two independent repeats.

The next assay has as its system cultured cells. The settings on record: Schindeler et al. 2015; cited from earlier work.
A short description of assay [2]: Hydroxyapatite (HA) binding assay, HPLC of supernatant. The settings on record: after 60 minutes of incubation with HA.
Description: To analyze the reduction in peak height due to HA binding, 100 μL of supernatant was withdrawn at predetermined time points and analyzed by HPLC.

With `CCCCCN(CCCCC)CCC[C@@H](C)[C@H]1CC[C@H]2[C@@H]3[C@H](OCCCN)C[C@@H]4C[C@H](OCCCN)CC[C@]4(C)[C@H]3CC(OCCCN)[C@]12C` (some centres unmarked) [CSA-90], the “Effect on protein prenylation (unprenylated protein band, western blot)” value in assay [1] is given as “did not induce a noticeable or comparable protein prenylation effect”. Also, in the assay with MC3T3-E1 cells, the “Alkaline phosphatase expression / osteogenic potential, compound alone” value is “increased alkaline phosphatase expression”. Moreover, the “Pro-osteogenic activity, potentiation of rhBMP-2” value with cultured cells is “pro-osteogenic activity”. Moreover, in assay [2], the “Reduction in peak height on HA incubation (in words)” value was “no, or very low, reduction in peak height”.

As to `NCCCC(O)(P(=O)(O)O)P(=O)(O)O` [alendronate], the “Effect on protein prenylation (unprenylated protein band, western blot)” value in assay [1] was “potent effect on protein prenylation”.
